Laboratory results from patent US8846115B2, “Anti-inflammatory cyclooxygenase inhibitors” (Metaproteomics, LLC, priority 2001, dated 2014).
Like-named read-outs stand apart in the source and are kept apart here.

iso-alpha acids
Solubility (aqueous solution that can be made) (pH 7.5): 20 % aqueous solution | Solubility (aqueous solution that can be made) (pH 9): 30 % aqueous solution
